Columns and labels:
[1] = target: T1, Purified calpain (CANP) sampled from a rat brain (Rattus norvegicus, UniProt Q07009); test: CANP inhibition activity in in vitro system; format: biochemical; conditions: N,N-dimethylcasein substrate, 30° C. for 20 minutes, pH 7.4, read-out: 50% inhibition concentration IC50
T1 construct: sampled from a rat brain; from tissue; host or cells: rat brain
T1 sequence (Q07009 1-700): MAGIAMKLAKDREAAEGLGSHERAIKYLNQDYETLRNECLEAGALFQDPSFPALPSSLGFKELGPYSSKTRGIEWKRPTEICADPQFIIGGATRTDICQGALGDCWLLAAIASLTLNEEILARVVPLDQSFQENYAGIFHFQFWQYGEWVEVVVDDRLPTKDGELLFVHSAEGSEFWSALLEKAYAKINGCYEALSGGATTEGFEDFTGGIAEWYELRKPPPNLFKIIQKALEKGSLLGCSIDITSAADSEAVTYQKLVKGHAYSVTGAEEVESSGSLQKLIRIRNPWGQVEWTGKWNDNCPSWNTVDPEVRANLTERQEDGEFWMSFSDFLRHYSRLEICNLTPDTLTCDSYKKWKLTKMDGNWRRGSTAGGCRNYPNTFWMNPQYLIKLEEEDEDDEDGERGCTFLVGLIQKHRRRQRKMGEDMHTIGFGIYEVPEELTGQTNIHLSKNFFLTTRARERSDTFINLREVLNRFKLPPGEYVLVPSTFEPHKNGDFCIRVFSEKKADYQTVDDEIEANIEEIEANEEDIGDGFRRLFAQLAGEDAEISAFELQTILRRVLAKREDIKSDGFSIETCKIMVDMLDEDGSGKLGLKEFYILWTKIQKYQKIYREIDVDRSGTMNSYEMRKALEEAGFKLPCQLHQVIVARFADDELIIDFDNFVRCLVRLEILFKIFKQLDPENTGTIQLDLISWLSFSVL
T1 sequence (Q64537 1-270 partner): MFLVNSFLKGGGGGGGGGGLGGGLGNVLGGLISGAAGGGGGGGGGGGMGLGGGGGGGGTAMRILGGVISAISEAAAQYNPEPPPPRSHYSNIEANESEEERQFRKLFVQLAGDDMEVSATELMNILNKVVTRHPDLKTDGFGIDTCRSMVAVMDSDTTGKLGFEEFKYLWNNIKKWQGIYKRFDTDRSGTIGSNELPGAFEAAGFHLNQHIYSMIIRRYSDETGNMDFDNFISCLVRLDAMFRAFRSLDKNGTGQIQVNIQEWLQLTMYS
Procedure: A solution mixture consisting of the following com-ponents was prepared.
A 167-mM Tris hydrochloric acid buffer solution (pH=7.4) (containing 15-mM mercaptoethanol); 40 μl
A solution obtained by dissolving the compound [I] of the present invention in the same Tris hydrochloric acid buffer solution as described above; 40 μl
Purified calpain [obtained by a method described in J. Biol. Chem., 239, 149 (1964)] sampled from a rat brain and dissolved in a 50-mM sodium acetic acid buffer solution (pH=6.0; containing 1-mM EDTA and 5-mM mercaptoethanol) 11 units/ml; 200 μl
An N,N-dimethylcasein solution (pH=7.0)
40 μl of a 167-mM Tris hydrochloric acid buffer solution (pH=7.4) containing 50-mM CaCl2 were added to the above solution mixture, and the resultant solution was incubated at 30° C. for 20 minutes. After the incubation, 320 μl of 10% (W/V) trichloroacetic acid were added to stop the reaction, and the resultant solution was left to stand in an ice bath for one hour. Thereafter, the solution was subjected to centrifugal separation (16,100×g, five minutes), and 600 μl of the supernatant were sampled to measure absorbance (a1) at 280 nm.
In another step, absorbance (a2) was obtained by performing an experiment and measurement following the same procedures as described above except that a 167-mM Tris hydrochloric acid buffer solution (pH=7.4; containing 15-mM mercaptoethanol) was used in place of the 167-mM Tris hydrochloric acid buffer solution containing the compound of the present invention. In addition, absorbance (a3) was obtained by performing an experiment and measurement following the same procedures as described above except that a 167-mM Tris hydrochloric acid buffer solution (pH=7.4; containing 1-mM EDTA) was used in place of the 167-mM tris buffer solution (pH=7.4) containing 50-mM CaCl2.
An inhibition ratio was calculated from the above absorbance values (a1), (a2), and (a3) in accordance with the following equation: [formula]
In addition, a concentration (IC50) required for 50% inhibition was calculated by using a semilogarithmical graph.

cathepsin B = target: T2, cathepsin B (Bos taurus, UniProt P07688); test: Cathepsin B inhibition activity in in-vitro system; format: biochemical; conditions: cathepsin B (Sigma), benzoyl-(phenylalanyl-alginyl)-4-methyl-coumarinamide substrate, pH 6.0, 30° C. for 20 minutes; read-out: 50% inhibition concentration IC50
T2 construct: purchased Sigma Co
Procedure: In this experiment, a 100-mM sodium phosphate buffer solution (pH=6.0; containing 1.33-mM EDTA Na2) was used as the buffer solutions for solution preparation.
A solution mixture consisting of the following components was prepared.
The above buffer solution; 850 μl
A 20-μM solution obtained by dissolving the compound of the present invention in the above buffer solution; 50 μl
A solution obtained by dissolving cathepsin B (available from Sigma Co.) in the above buffer solution to have a concentration of 0.5 mg/ml; 50 μl
50 μl of a 200-μM solution obtained by dissolving benzoyl-(phenylalanyl-alginyl)-4-methyl-coumarinamide in the above buffer solution were added to the above solution mixture, and the resultant solution was incubated at 30° C. for 20 minutes.
After the incubation, the reaction solution mixture was cooled in an ice bath to stop the reaction. After 20 minutes elapsed, the fluorescence intensity (b1) at an excitation wavelength of 370 nm and an emission wavelength of 440 nm was measured. At the same time, an experiment was performed using the above buffer solution in place of the solution of cathepsin B in the above system, and fluorescence intensity (b2) was measured following the same procedures as described above. In addition, an experiment was performed using the above buffer solution in place of the buffer solution of the compound of the present invention, and fluorescence intensity (b3) was measured following the same procedures as described above.
An inhibition ratio was calculated in accordance with the following equation: [formula] and a concentration (IC50) required for 50% inhibition was calculated by using a semilogarithmical graph.

IC50 [1] [nM]	IC50 (cathepsin B) [nM]	SMILES
6000	9	CC(C)CCNC(=O)[C@H](CC(C)C)NC(=O)[C@H]1OS(=O)(=O)O[C@@H]1C(=O)OCc1ccccc1 [Example 11, Benzyl (4S,5S)-5-[(S)-3-methyl-1-(3-methylbutylcarbamoyl)butylcarbamoyl]-1,3,2-dioxathiolane-4-carboxylate-2,2-dioxide]
15000	25	CCOC(=O)[C@H]1OS(=O)(=O)O[C@@H]1C(=O)N[C@@H](CC(C)C)C(=O)NCCC(C)C [Example 4, Ethyl (4S,5S)-5-[(S)-3-methyl-1-(3-methylbutylcarbamoyl)butylcarbamoyl]-1,3,2-dioxathiolane-4-carboxylate-2,2-dioxide]
	3	CCOC(=O)[C@H]1OS(=O)(=O)O[C@@H]1C(=O)N[C@@H](CC(C)C)C(=O)NCc1ccccc1 [Example 16, Ethyl (4S,5S)-5-[(S)-1-benzylcarbamoyl-3-methylbutylcarbamoyl]-1,3,2-dioxathiolane-4-carboxylate-2,2-dioxide]
300	0.7	CC(C)CCNC(=O)[C@H](CC(C)C)NC(=O)[C@H]1OS(=O)(=O)O[C@@H]1C(=O)O [Example 12, (4S,5S)-5[(S)-3-methyl-1-(3-methylbutylcarbamoyl)butylcarbamoyl]-1,3,2-dioxathiolane-4-carboxy-2,2-dioxide]
7000	35	CC(C)CC(NC(=O)C1OC1C(=O)O)C(=O)NCCCCNC(=N)N (stereo not shown) [Example E-64, E-64, reference compound]
	15	CCCCN(CCCC)C(=O)[C@H](CC(C)C)NC(=O)[C@H]1OS(=O)(=O)O[C@@H]1C(=O)OCC [Example 14]

From patent US5214056A, “1,3,2-dioxathiolane oxide derivative” (Japan Tobacco Inc., priority 1989, dated 1993)
